Reference: ChEMBL document CHEMBL4507281, “Data for DCP probe BI-4394” (2021)

Legend:
Conditions in all cases: Compound concentration 10.0 uM
[1] = target: Insulin-like growth factor 1 receptor (Homo sapiens) (UniProt P08069)
[2] = target: T1, Aurora kinase A (Homo sapiens) (UniProt O14965)
T1 sequence (whole entry): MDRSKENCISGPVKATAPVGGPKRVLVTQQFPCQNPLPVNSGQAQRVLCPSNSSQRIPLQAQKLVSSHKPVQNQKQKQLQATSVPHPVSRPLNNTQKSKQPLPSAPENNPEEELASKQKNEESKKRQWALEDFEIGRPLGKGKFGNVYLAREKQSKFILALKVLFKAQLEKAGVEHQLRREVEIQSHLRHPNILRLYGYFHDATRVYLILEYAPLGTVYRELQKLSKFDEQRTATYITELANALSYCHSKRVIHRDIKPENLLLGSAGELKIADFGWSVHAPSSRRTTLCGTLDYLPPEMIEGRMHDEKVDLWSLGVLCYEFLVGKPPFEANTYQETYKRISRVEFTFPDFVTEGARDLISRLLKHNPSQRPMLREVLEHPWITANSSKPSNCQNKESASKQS

[3] = target: Epidermal growth factor receptor (Homo sapiens) (UniProt P00533)
[4] = target: Mitogen-activated protein kinase kinase kinase 9 (Homo sapiens) (UniProt P80192)
[5] = target: Glycogen synthase kinase-3 beta (Homo sapiens) (UniProt P49841)
Sequence of Glycogen synthase kinase-3 beta (Homo sapiens) (P49841 whole entry, looked up): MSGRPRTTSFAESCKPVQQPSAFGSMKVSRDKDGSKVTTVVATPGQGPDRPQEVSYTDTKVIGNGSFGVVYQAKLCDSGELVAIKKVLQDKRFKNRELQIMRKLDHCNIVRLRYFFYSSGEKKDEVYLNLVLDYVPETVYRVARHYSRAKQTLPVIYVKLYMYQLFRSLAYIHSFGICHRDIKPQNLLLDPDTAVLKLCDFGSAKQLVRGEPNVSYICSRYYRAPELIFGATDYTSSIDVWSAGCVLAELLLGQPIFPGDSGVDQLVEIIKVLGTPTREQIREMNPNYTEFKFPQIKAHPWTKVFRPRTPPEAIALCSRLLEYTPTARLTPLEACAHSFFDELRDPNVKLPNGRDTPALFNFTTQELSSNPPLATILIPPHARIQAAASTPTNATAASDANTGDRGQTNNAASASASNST

[6] = target: PI3-kinase p110-alpha/p85-alpha (Homo sapiens) (UniProt P27986+P42336)
[7] = target: T2, Tyrosine-protein kinase ZAP-70 (Homo sapiens) (UniProt P43403)
T2 sequence (whole entry): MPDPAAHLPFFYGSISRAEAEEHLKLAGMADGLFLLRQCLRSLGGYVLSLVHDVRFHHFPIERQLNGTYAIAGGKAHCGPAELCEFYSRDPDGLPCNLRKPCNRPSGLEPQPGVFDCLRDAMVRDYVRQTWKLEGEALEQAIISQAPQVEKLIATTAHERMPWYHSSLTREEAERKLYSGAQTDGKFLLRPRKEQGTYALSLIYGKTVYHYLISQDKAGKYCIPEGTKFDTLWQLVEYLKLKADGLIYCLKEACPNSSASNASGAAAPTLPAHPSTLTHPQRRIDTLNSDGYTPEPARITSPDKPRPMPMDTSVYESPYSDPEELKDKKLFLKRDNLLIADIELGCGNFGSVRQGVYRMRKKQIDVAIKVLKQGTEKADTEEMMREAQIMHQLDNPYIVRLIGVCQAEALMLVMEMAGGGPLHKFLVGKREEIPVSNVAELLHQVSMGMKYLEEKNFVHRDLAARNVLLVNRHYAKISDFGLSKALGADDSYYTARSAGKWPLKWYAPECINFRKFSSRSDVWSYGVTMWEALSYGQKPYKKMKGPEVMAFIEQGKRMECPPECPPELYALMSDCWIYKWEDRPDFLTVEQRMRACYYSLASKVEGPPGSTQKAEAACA

[8] = target: Rho-associated protein kinase 1 (Homo sapiens) (UniProt Q13464)
Sequence of Rho-associated protein kinase 1 (Homo sapiens) (Q13464 2-1354 limits assumed): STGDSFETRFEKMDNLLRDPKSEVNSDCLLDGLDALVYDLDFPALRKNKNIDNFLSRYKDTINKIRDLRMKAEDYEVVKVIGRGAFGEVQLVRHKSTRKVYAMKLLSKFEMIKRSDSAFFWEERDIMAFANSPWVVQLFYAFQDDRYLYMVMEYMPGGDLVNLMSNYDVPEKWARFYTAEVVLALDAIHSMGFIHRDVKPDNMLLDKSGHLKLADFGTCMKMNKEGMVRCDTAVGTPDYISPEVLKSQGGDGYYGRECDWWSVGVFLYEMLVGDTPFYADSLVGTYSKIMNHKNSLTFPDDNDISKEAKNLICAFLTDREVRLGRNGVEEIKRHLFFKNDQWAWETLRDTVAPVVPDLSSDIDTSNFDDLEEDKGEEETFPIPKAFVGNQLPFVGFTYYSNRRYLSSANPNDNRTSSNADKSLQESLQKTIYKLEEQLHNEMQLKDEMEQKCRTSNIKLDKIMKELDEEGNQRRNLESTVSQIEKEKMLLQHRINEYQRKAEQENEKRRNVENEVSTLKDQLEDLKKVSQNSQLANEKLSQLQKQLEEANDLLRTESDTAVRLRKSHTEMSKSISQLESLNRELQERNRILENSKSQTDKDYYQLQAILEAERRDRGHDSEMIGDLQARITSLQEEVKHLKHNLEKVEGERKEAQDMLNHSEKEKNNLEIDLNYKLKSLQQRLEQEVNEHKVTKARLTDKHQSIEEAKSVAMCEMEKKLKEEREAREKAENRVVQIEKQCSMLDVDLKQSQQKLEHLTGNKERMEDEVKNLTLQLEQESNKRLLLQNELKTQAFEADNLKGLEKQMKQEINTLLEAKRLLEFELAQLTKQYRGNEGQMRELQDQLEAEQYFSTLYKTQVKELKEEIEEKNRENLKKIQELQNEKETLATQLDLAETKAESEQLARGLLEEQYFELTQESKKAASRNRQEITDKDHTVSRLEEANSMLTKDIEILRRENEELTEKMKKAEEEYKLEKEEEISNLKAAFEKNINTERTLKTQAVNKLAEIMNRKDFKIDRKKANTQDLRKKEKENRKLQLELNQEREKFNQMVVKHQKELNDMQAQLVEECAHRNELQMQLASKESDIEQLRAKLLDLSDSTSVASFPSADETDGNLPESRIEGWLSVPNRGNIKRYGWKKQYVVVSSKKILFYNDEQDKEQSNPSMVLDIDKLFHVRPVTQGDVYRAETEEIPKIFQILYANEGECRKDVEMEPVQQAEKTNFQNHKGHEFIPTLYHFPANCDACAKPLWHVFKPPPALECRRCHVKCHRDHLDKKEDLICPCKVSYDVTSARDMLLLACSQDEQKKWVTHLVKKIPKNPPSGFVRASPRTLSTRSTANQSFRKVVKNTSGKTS

[9] = target: Rho-associated protein kinase 2 (Homo sapiens) (UniProt O75116)
[10] = target: Mitogen-activated protein kinase 8 (Homo sapiens) (UniProt P45983)
Sequence of Mitogen-activated protein kinase 8 (Homo sapiens) (P45983 whole entry): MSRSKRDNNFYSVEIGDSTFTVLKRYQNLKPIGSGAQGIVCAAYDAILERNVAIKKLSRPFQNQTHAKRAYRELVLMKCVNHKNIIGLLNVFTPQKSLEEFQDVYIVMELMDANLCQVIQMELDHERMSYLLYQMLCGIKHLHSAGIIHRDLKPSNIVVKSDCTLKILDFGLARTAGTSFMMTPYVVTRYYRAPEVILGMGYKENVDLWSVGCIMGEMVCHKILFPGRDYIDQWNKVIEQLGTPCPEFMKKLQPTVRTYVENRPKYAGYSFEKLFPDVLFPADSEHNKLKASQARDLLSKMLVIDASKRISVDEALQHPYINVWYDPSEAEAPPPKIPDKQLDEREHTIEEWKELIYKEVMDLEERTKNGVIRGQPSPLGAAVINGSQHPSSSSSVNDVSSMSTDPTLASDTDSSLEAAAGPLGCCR

[11] = target: Insulin receptor (Homo sapiens) (UniProt P06213)
[12] = target: Cyclin-dependent kinase 1/cyclin B (Homo sapiens) (UniProt P06493+P14635+Q8WWL7+O95067)
[13] = target: Protein kinase C beta type (Homo sapiens) (UniProt P05771)
Sequence of Protein kinase C beta type (Homo sapiens) (P05771 2-671 limits assumed): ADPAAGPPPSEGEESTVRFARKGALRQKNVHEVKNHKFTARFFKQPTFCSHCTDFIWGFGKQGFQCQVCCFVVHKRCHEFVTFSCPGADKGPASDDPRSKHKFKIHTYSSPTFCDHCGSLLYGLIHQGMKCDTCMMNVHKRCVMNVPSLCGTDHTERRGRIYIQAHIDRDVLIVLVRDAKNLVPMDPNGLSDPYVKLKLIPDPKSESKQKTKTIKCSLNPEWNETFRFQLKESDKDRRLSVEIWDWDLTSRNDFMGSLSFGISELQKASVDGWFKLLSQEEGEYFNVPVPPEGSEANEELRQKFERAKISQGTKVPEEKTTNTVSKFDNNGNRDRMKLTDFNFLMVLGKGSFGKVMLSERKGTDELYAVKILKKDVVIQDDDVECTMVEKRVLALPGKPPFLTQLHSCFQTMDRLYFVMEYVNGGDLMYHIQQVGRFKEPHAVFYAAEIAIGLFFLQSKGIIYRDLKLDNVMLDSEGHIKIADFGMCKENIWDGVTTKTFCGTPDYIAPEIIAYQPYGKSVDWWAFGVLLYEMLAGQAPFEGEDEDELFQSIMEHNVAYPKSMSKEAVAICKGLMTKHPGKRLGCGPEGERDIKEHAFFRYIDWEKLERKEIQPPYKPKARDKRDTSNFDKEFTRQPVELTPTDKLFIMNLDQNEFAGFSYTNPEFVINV

[14] = target: Mitogen-activated protein kinase kinase kinase kinase 4 (Homo sapiens) (UniProt O95819)
Sequence of Mitogen-activated protein kinase kinase kinase kinase 4 (Homo sapiens) (O95819 2-1239 limits assumed): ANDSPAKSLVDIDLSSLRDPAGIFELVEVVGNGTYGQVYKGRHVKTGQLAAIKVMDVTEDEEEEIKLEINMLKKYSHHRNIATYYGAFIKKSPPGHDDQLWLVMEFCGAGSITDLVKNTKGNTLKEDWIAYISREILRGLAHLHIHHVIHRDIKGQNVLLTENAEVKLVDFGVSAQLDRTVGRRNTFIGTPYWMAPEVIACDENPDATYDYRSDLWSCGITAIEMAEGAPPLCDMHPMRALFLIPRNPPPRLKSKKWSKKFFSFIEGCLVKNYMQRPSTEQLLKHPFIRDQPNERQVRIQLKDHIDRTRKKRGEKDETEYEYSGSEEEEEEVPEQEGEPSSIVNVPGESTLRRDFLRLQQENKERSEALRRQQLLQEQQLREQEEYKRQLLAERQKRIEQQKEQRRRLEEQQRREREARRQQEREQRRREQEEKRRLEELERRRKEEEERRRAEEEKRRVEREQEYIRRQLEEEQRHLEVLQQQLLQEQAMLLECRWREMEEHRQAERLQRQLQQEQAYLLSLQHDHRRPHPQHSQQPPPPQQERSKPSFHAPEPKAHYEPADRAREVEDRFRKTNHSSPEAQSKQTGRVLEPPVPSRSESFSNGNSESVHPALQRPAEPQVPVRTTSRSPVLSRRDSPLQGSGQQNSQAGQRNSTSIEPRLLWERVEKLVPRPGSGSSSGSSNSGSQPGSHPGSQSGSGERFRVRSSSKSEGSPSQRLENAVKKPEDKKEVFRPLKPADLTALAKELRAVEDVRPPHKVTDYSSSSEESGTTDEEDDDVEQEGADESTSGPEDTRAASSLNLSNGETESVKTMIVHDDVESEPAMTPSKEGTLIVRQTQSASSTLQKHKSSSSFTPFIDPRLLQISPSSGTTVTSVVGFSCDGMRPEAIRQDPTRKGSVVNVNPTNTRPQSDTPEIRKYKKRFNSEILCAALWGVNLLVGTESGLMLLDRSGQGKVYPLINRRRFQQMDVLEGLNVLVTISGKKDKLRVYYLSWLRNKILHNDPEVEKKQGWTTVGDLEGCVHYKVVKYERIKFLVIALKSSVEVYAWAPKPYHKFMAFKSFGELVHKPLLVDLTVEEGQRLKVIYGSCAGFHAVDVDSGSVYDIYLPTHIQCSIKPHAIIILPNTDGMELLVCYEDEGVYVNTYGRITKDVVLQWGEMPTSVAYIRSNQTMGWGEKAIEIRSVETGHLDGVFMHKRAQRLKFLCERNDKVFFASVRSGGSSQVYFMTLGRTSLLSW

[15] = target: Vascular endothelial growth factor receptor 2 (Homo sapiens) (UniProt P35968)
[16] = target: T3, Inhibitor of nuclear factor kappa-B kinase subunit beta (Homo sapiens) (UniProt O14920)
T3 sequence (whole entry): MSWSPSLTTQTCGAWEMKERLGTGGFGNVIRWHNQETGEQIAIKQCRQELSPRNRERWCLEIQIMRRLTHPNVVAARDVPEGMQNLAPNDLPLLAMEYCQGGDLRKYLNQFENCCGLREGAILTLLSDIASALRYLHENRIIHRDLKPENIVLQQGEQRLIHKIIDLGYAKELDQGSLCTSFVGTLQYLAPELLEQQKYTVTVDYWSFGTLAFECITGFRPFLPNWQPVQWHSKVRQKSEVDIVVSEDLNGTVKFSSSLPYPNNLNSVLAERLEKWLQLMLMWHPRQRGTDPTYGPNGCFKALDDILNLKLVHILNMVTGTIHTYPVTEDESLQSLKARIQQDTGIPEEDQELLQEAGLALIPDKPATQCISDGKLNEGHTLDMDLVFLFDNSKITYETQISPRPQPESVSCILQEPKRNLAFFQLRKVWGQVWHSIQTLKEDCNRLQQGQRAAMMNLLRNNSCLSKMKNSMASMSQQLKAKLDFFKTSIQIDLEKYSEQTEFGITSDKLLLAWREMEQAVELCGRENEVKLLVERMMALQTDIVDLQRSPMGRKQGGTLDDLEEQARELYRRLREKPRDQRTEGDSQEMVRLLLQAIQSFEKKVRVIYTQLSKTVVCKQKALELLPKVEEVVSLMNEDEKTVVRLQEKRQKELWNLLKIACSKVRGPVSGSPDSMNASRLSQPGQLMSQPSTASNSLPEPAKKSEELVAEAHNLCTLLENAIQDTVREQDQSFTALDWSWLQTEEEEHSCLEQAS

[17] = target: Serine/threonine-protein kinase MARK2 (Homo sapiens) (UniProt Q7KZI7)
[18] = target: Mast/stem cell growth factor receptor Kit (Homo sapiens) (UniProt P10721)
[19] = target: Cyclin-dependent kinase 2/cyclin A (Homo sapiens) (UniProt P24941+P20248+P78396)
[20] = target: Platelet-derived growth factor receptor beta (Homo sapiens) (UniProt P09619)
[21] = target: Receptor-type tyrosine-protein kinase FLT3 (Homo sapiens) (UniProt P36888)
Sequence of Receptor-type tyrosine-protein kinase FLT3 (Homo sapiens) (P36888 whole entry): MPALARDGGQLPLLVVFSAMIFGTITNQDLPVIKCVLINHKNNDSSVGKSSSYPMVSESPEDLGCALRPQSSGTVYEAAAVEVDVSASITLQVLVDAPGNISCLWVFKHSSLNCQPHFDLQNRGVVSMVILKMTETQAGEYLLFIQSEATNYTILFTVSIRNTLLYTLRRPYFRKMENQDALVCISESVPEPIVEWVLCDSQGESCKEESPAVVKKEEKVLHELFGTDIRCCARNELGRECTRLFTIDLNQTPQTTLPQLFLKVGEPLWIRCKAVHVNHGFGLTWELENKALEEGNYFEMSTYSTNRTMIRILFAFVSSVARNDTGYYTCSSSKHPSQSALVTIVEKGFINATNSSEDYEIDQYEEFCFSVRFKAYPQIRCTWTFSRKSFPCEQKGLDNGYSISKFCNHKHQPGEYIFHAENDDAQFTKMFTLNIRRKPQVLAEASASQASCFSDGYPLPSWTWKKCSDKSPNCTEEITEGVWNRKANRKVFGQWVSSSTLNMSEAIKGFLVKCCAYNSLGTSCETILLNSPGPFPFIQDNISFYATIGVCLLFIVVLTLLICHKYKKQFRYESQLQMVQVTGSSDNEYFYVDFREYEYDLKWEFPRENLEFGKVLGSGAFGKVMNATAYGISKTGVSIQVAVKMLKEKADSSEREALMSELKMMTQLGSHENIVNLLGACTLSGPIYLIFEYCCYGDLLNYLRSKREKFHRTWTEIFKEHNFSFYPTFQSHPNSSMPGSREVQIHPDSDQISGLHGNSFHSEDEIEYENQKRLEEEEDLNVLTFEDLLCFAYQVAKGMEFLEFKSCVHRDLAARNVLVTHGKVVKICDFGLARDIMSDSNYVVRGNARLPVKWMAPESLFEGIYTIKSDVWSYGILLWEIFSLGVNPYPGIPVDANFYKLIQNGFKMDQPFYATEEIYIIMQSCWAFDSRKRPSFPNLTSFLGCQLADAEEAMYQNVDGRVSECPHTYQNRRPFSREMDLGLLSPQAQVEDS

In the case of `CCOC(=O)c1cc2cc(-c3cc(C(=O)NCc4ccc(C(=O)O)cc4)nn3C)ccc2[nH]1` [BI 4394], the residual activity [1] is reported as 88%, the residual activity [2] is reported as -1% and the residual activity [3] is reported as 99%. The residual activity [4] was 93%, the residual activity [5] was 6% and the residual activity [6] was 133%. For the same compound, the residual activity [7] was 100%, the residual activity [8] was 97% and the residual activity [9] was 56%. For the same compound, the residual activity [10] was 87%, the residual activity [11] was 98% and the residual activity [12] was 88%. It also gave a residual activity [13] of 97%, a residual activity [14] of 32% and a residual activity [15] of 17%. For the same compound, the residual activity [16] was 48%, the residual activity [17] was 107% and the residual activity [18] was 77%. The residual activity [19] was 93%, the residual activity [20] was 96% and the residual activity [21] was 64%.
